Assay results from ChEMBL document CHEMBL5149985, “Discovery of cytotoxic natural products from Red Sea sponges: Structure and synthesis” (Eur J Med Chem, 2021).
pIC50: −log10 of the molar value.

What was measured:
BT-474 = assay: Anticancer activity against human BT-474 cells assessed as cell growth inhibition incubated for 48 hrs by MTT assay; format: functional, cell-based; conditions: BT-474, 48 h
HeLa [1] = assay: Anticancer activity against human HeLa cells assessed as inhibition of cell growth; format: functional, cell-based
Daoy = assay: Anticancer activity against human Daoy cells assessed as inhibition of cell growth; format: functional, cell-based
HT-29 [2] = assay: Antiproliferative activity against human HT-29 cells assessed as cell growth inhibition incubated for 72 hrs by SRB assay; format: functional, cell-based; conditions: HT-29, 72 h
MDA-MB-231 [3] = assay: Antiproliferative activity against human MDA-MB-231 cells assessed as cell growth inhibition incubated for 72 hrs by SRB assay; format: functional, cell-based; conditions: MDA-MB-231, 72 h
A549 [4] = assay: Antiproliferative activity against human A549 cells assessed as cell growth inhibition incubated for 72 hrs by SRB assay; format: functional, cell-based; conditions: A549, 72 h
P388 [5] = assay: Anticancer activity against mouse P388 cells assessed as inhibition of cell growth; format: functional, cell-based
HT-29 [6] = assay: Anticancer activity against human HT-29 cells assessed as inhibition of cell growth; format: functional, cell-based
A549 [7] = assay: Anticancer activity against human A549 cells assessed as inhibition of cell growth; format: functional, cell-based
HepG2 [8] = assay: cells; conditions: Homo sapiens
Description: Anticancer activity against human HepG2 cells assessed as inhibition of cell growth by MTT assay

MCF7 [9] = assay: Anticancer activity against human MCF7 cells assessed as inhibition of cell growth by MTT assay; format: functional, cell-based
HCT-116 [10] = assay: cells; conditions: Homo sapiens
Description: Anticancer activity against human HCT-116 cells assessed as inhibition of cell growth by MTT assay

A549 [11] = assay: Anticancer activity against human A549 cells assessed as inhibition of cell growth by dilution assay; format: functional, cell-based
P388 [12] = assay: Anticancer activity against mouse P388 cells assessed as inhibition of cell growth by dilution assay; format: functional, cell-based
HT-29 [13] = assay: Anticancer activity against human HT-29 cells assessed as inhibition of cell growth by dilution assay; format: functional, cell-based
MCF7 [14] = assay: Anticancer activity against human MCF7 cells assessed as inhibition of cell growth; format: functional, cell-based
PC-3 = assay: Anticancer activity against human PC-3 cells assessed as inhibition of cell growth; format: functional, cell-based
KB 3-1 = assay: Anticancer activity against human KB 3-1 cells assessed as inhibition in cell growth; format: functional, cell-based
P388 [15] = assay: Anticancer activity against mouse P388 cells assessed as reduction in cell growth; format: functional, cell-based
P388 [16] = assay: Anticancer activity against mouse P388 cells assessed as cell growth inhibition; format: functional, cell-based
A549 [17] = assay: Anticancer activity against human A549 cells assessed as cell growth inhibition; format: functional, cell-based
HT-29 [18] = assay: Anticancer activity against human HT-29 cells assessed as cell growth inhibition; format: functional, cell-based
HepG2 [19] = assay: Anticancer activity against human HepG2 cells assessed as inhibition of cell growth; format: functional, cell-based
HCT-116 [20] = assay: Antiproliferative activity against human HCT-116 cells assessed as cell viability measured after 24 hrs by MTT assay; format: functional, cell-based; conditions: HCT-116, 24 h
MDA-MB-231 [21] = assay: Anticancer activity against human MDA-MB-231 cells assessed as cell viability measured after 24 hrs by MTT assay; format: functional, cell-based; conditions: MDA-MB-231, 24 h
HeLa [22] = assay: Antiproliferative activity against human HeLa cells assessed as cell viability measured after 24 hrs by MTT assay; format: functional, cell-based

[O-][N+]12CCC[C@]3(O)CCCCCC[C@@H]4CCN5CCC[C@](O)(CCCCCC[C@H](CC1)O[C@@H]32)[C@@H]5O4 (some centres not stated)
pIC50 (BT-474): 4.45

O=C(O)CCCC#C/C=C/CC/C=C/C#C/C=C/Br
pIC50 (HeLa [1]): 6.86 | pIC50 (Daoy): 7.12

COc1ccc2[nH]c3c(-c4c[nH]c5cc(O)ccc45)ncc(C(=O)O)c3c2c1
pIC50 (HT-29 [2]): 4.07 | pIC50 (MDA-MB-231 [3]): 4.05 | pIC50 (A549 [4]): 4.00

C=C(CCC1=C(C)CCCC1(C)C)C(O)CC[C@@]1(C)CC[C@H]([C@@H](C)C(=O)O)OO1 (some centres not stated)
pIC50 (P388 [5]): < 8.62 | pIC50 (HT-29 [6]): < 8.62 | pIC50 (A549 [7]): < 8.62

O=C(O)CCCCCC#C/C=C/CCCCC#C/C=C/Br
pIC50 (HeLa [1]): 7.06 | pIC50 (Daoy): 7.18

CC[C@@]1(C)CCC[C@]2(C)[C@H]3C[C@H](OC(C)=O)[C@]45C[C@@H](O)[C@H]4C(C(C)=O)=CC[C@H]5[C@]3(C)CC[C@@H]12
pIC50 (HepG2 [8]): 8.42 | pIC50 (MCF7 [9]): 8.54 | pIC50 (HCT-116 [10]): 8.54

CC[C@@]1(C)CCC[C@]2(C)[C@H]3C[C@H](OC(C)=O)[C@]4(C)[C@H]5CO[C@](C)(O)C5CC[C@H]4[C@]3(C)CC[C@@H]12 (some centres not stated)
pIC50 (HepG2 [8]): 8.48 | pIC50 (MCF7 [9]): 8.40 | pIC50 (HCT-116 [10]): 8.77

CC(=O)O[C@H]1CC[C@]2(C)[C@H]3C[C@@H](O)[C@]4(C)C5=C(CC[C@H]4[C@]3(C)CC[C@H]2C1(C)C)COC5=O
pIC50 (A549 [11]): 8.66 | pIC50 (P388 [12]): 8.66 | pIC50 (HT-29 [13]): < 8.66

C#C/C=C\CCCCC#CC#CCCCCCC#CCO
pIC50 (MCF7 [14]): 4.93

CO[C@@]1(C)CCC(C(C)C)=C[C@@H]2[C@H]1CC[C@]2(C)O
pIC50 (P388 [5]): < 8.40

CC1=CCC2C(CC[C@@]2(C)O)C(C)(C)[C@@H]1CC[C@H]1[C@@](C)(O)CCC2OC(C)(C)[C@H](O)CC[C@@]21C (some centres not stated)
pIC50 (PC-3): 5.10 | pIC50 (KB 3-1): 8.32 | pIC50 (A549 [7]): 5.05

CC(=O)OC1=C(C[C@]2(C)[C@@H](C)CC[C@]3(C)C(C)=CCC[C@@H]23)C(=O)C=CC1=O
pIC50 (P388 [15]): 7.52

O[C@]12CCCCCC[C@@H]3CCN4CCC[C@@H](CCCCCC[C@@H]5CCN(CCC1)[C@H]2O5)[C@@H]4O3
pIC50 (BT-474): 5.03

[O-][N+]12CCC[C@]3(O)CCCCCC[C@@H]4CCN5CCC[C@@H](CCCCCC[C@H](CC1)O[C@@H]32)[C@@H]5O4 (some centres not stated)
pIC50 (BT-474): 4.53

C=C(CCC[C@@]1(C)CC[C@H]([C@@H](C)C(=O)OC)OO1)CCC1(O)C(=C)CCCC1(C)C (some centres not stated)
pIC50 (P388 [5]): < 8.62 | pIC50 (HT-29 [6]): < 8.62 | pIC50 (A549 [7]): < 8.62

O=C(O)c1cnc(-c2c[nH]c3cc(O)ccc23)c2[nH]c3ccc(O)cc3c12
pIC50 (HT-29 [2]): 4.55 | pIC50 (MDA-MB-231 [3]): 4.60 | pIC50 (A549 [4]): 4.52

COC(=O)[C@@H](C)[C@@H]1CC[C@](C)(CCC(=O)C(C)(C)CCCC(C)=O)OO1 [DIACARPEROXIDE B]
IC50 (P388 [16]): ≥ 1 µg/mL | IC50 (A549 [17]): ≥ 1 µg/mL | IC50 (HT-29 [18]): ≥ 1 µg/mL

CCCCCCCC/C=C\CCCCCCC[C@@H](O)C(=O)N[C@@H](CO)[C@H](O)[C@H](O)CCCCCCCCCCCCCCCCCCC
pIC50 (HepG2 [19]): 4.67 | pIC50 (MCF7 [14]): 4.53

C=C1CCC[C@@H]2[C@@](C)(CC[C@@]3(C)CC[C@@H]([C@H](C)C(=O)O)OO3)[C@H](C)CC[C@@]12C
pIC50 (PC-3): 4.36 | pIC50 (MCF7 [14]): 4.44 | pIC50 (A549 [17]): 4.62

COC1=C(Br)C[C@]2(OC=C1Br)ON=C(C(=O)NCCCOc1c(Br)cc(CCN)cc1Br)[C@@H]2O [PSAMMAPLYSIN A]
pIC50 (HCT-116 [20]): 5.07 | pIC50 (MDA-MB-231 [21]): 5.41 | pIC50 (HeLa [22]): 5.07

COC1=C(Br)C[C@@]2(OC=C1Br)ON=C(C(=O)NCCCOc1c(Br)cc(C(O)CNC(N)=O)cc1Br)[C@H]2O (some centres not stated)
pIC50 (HCT-116 [20]): 5.15 | pIC50 (MDA-MB-231 [21]): 4.88 | pIC50 (HeLa [22]): 4.75

NC(=O)c1cnc(-c2c[nH]c3cc(O)ccc23)c2[nH]c3ccc(O)cc3c12
pIC50 (HT-29 [2]): 4.35 | pIC50 (MDA-MB-231 [3]): 4.38 | pIC50 (A549 [4]): 4.46

CC(=O)O[C@H]1C[C@@H]2[C@@]3(C)CCCC(C)(C)[C@@H]3CC[C@@]2(C)[C@@H]2CC=C(C(C)=O)[C@@H]3[C@H](O)C[C@@]132
pIC50 (HepG2 [8]): 8.33 | pIC50 (MCF7 [9]): 8.62 | pIC50 (HCT-116 [10]): 9.22

CC(=O)O[C@@H]1c2occc2[C@@H](O)C[C@H]2[C@]3(C)CC[C@H]4C(C)(C)CCC[C@]4(C)[C@H]3C[C@@]21C [SALMAHYRTISOL A]
pIC50 (A549 [11]): 8.66 | pIC50 (P388 [12]): 8.66 | pIC50 (HT-29 [13]): < 8.66
